Source: US12479840B2, “HMG-CoA reductase degradation inducing compound” (Uppthera, priority 2020, dated 2025)

Target: T1, HMG-CoA reductase (Homo sapiens, UniProt P04035)
T1 construct: endogenous in cells; host or cells: HepG2 (Korea Cell Line Bank)
T1 sequence (P04035 1-888): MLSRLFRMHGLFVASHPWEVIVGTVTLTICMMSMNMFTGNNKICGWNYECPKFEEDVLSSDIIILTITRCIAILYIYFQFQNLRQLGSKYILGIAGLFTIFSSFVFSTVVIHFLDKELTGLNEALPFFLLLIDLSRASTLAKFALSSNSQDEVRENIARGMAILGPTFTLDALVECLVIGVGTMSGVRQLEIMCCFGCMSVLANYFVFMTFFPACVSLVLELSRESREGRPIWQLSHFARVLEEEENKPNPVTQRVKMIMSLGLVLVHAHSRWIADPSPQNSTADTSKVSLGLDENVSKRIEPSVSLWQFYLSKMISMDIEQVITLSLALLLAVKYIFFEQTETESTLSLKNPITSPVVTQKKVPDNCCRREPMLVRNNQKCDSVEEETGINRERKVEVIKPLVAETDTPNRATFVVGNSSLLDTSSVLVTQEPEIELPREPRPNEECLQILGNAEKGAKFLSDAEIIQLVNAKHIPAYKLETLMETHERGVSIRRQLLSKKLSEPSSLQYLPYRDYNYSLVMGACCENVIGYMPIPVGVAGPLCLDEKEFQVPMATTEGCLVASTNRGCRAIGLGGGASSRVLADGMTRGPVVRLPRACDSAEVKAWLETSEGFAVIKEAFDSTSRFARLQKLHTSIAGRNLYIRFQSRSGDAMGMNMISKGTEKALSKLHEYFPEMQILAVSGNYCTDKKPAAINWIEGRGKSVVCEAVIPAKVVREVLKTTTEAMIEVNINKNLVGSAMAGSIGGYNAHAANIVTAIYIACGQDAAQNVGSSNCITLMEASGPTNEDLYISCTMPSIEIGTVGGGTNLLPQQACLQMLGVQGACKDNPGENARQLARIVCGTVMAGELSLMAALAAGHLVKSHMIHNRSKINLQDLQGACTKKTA
Assay: HMG-CoA reductase (HMGCR) degradation in HepG2 cells by western blotting
Assay type: cell-based
Conditions: treated for 18 hours, ratio of HMG-CoA reductase to GAPDH, read-out: DC50
How it was run: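 HepG2 cells (passage P105–P110) treated 18 hours with compounds in 10-point three-fold dilutions from 3 μM. RIPA lysates (15 μg protein, BCA-quantified) run on SDS-PAGE and immunoblotted for HMGCR (1:500) with GAPDH (1:20000) as loading control, primary antibodies 16 hours at 4° C.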

| DC50 [nM] | Compound |
| --- | --- |
| < 50 | Cc1ncsc1-c1ccc(CNC(=O)[C@H]2C[C@H](O)CN2C(=O)[C@H](NC(=O)C2(F)CC2)C(C)(C)C)c(OCC(=O)N2CCC(CCCNC(=O)O[C@H]3C[C@@H](C)C=C4C=C[C@H](C)[C@H](CC[C@@H]5C[C@@H](O)CC(=O)O5)[C@H]43)CC2)c1 [Compound 168, (1S,3R,7S,8S,8aR)-8-(2-((2R,4R)-4-hydroxy-6-oxotetrahydro-2H-pyran-2-yl)ethyl)-3,7-dimethyl-1,2,3,7,8,8a-hexahydronaphthalen-1-yl (3-(1-(2-(2-(((2R,4S)-1-((R)-2-(1-fluorocyclopropane-1-carboxamido)-3,3-dimethylbutanoyl)-4-hydroxypyrrolidine-2-carboxamido)methyl)-5-(4-methylthiazol-5-yl)phenoxy)acetyl)piperidin-4-yl)propyl)carbamate] |
| < 50 | Cc1ncsc1-c1ccc(CNC(=O)[C@@H]2C[C@@H](O)CN2C(=O)[C@@H](NC(=O)C2(F)CC2)C(C)(C)C)c(OCCc2cn(CCCNC(=O)O[C@@H]3C[C@H](C)C=C4C=C[C@@H](C)[C@@H](CC[C@@H]5C[C@@H](O)CC(=O)O5)[C@@H]43)nn2)c1 [Compound 169, (1R,3S,7R,8R,8aS)-8-(2-((2R,4R)-4-hydroxy-6-oxotetrahydro-2H-pyran-2-yl)ethyl)-3,7-dimethyl-1,2,3,7,8,8a-hexahydronaphthalen-1-yl (3-(4-(2-(2-(((2S,4R)-1-((S)-2-(1-fluorocyclopropane-1-carboxamido)-3,3-dimethylbutanoyl)-4-hydroxypyrrolidine-2-carboxamido)methyl)-5-(4-methylthiazol-5-yl)phenoxy)ethyl)-1H-1,2,3-triazol-1-yl)propyl)carbamate] |
